Source: PubChem BioAssay (NCI)
Where “and” joins values, the source holds several entries; their conditions need not be identical. Equal entries are not always repeated.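 Method: 48-hour compound exposure of cells in 96-well plates, five concentrations, linear interpolation of endpoints. GI50 is the concentration that inhibits growth by half. TGI: total growth inhibition.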

Legend:
Assay in all cases: inhibition of tumour cell growth, NCI panel, 48 h
SK-MEL-2 melanoma = system: SK-MEL-2 melanoma
CAKI-1 renal = system: CAKI-1 renal
SF-539 CNS = system: SF-539 CNS
MCF7 breast = system: MCF7 breast
NCI-H460 lung = system: NCI-H460 lung
CCRF-CEM leukemia = system: CCRF-CEM leukemia
HL-60(TB) leukemia = system: HL-60(TB) leukemia
786-0 renal = system: 786-0 renal
SK-OV-3 ovarian = system: SK-OV-3 ovarian
TK-10 renal = system: TK-10 renal

SMILES | GI50 (SK-MEL-2 melanoma) | TGI (SK-MEL-2 melanoma) | GI50 (CAKI-1 renal) | TGI (CAKI-1 renal) | GI50 (SF-539 CNS) | TGI (SF-539 CNS) | GI50 (MCF7 breast) | TGI (MCF7 breast) | GI50 (NCI-H460 lung) | TGI (NCI-H460 lung) | GI50 (CCRF-CEM leukemia) | TGI (CCRF-CEM leukemia) | GI50 (HL-60(TB) leukemia) | TGI (HL-60(TB) leukemia) | GI50 (786-0 renal) | TGI (786-0 renal) | GI50 (SK-OV-3 ovarian) | TGI (SK-OV-3 ovarian) | GI50 (TK-10 renal) | TGI (TK-10 renal)
COC(=O)[C@]12CC[C@@H](C)[C@H](C)[C@@H]1C1=CC[C@@H]3[C@@]4(C)C(C=O)=C[C@@](C)(COC(C)=O)[C@@H]4[C@H](O)C[C@@]3(C)[C@]1(C)CC2 | 2.61 µM | 6.15 µM | 2.72 µM | 12.3 µM | 1.93 µM | 4.14 µM | 1.94 µM | 5.51 µM | 1.89 µM | 3.9 µM | 1.98 µM | 7.01 µM | 2.53 µM | 5.42 µM | 1.89 µM | 4.26 µM | 4.35 µM | 16.1 µM | 2.73 µM | 8.77 µM
CO[C@H]1[C@H](O)[C@H](O[C@H]2CC[C@@]3(C)[C@H](CC[C@@H]4[C@@H]3CC[C@]3(C)[C@@H](C5=CC(=O)OC5)CC[C@]43O)C2)O[C@@H](C)[C@@H]1O |  | 0.00476 µM and < 0.0175 µM |  | 0.00156 µM |  | 0.00111 µM |  | 0.0288 µM |  | 0.00151 µM | 0.000406 µM | 0.00107 µM | 0.00175 µM | 0.00363 µM |  | 0.000687 µM |  | 0.00245 µM and 0.0106 µM |  | 0.00345 µM
C(CCc1nnc2c(n1)CCCC2)Cc1nnc2c(n1)CCCC2 |  | > 100 µM |  | > 100 µM |  | > 100 µM |  | > 100 µM |  | > 100 µM |  | > 100 µM |  | > 100 µM |  | > 100 µM |  | > 100 µM |  | > 100 µM
NC1=NC(c2ccccc2)N=C(Nc2ccccc2)N1 (stereo not drawn) | > 100 µM | > 100 µM | > 100 µM | > 100 µM | > 100 µM | > 100 µM | 38.5 µM | > 100 µM | > 100 µM | > 100 µM | > 100 µM | > 100 µM | > 100 µM | > 100 µM | > 100 µM | > 100 µM | > 100 µM | > 100 µM | > 100 µM | > 100 µM
Nc1ccn([C@H]2C[C@@H](O)[C@@H](CO)S2)c(=O)n1 | > 100 µM | > 100 µM | 8.4 µM | > 100 µM | > 100 µM | > 100 µM | > 100 µM | > 100 µM | 34.9 µM | > 100 µM |  |  | 14.5 µM | > 100 µM | > 100 µM | > 100 µM | > 100 µM | > 100 µM | > 100 µM | > 100 µM
NCCNCC(O)CO (stereo not drawn) |  | > 100 µM |  | > 100 µM |  | > 100 µM |  | > 100 µM |  | > 100 µM |  |  |  | > 100 µM |  | > 100 µM |  | > 100 µM |  | > 100 µM
CCCCn1c2c(c3ccccc3c1=O)C(=O)c1ccccc1-2 |  | > 100 µM |  | > 100 µM |  | > 100 µM |  | > 100 µM |  |  |  | > 100 µM |  | > 100 µM |  | > 100 µM |  | > 100 µM |  | > 100 µM
Nc1c(C(=O)c2cccc(OCCN3CCOCC3)c2)cnn1-c1ccc(F)cc1 | > 25 µM | > 25 µM | > 25 µM | > 25 µM | > 25 µM | > 25 µM | > 25 µM | > 25 µM | > 25 µM | > 25 µM | > 25 µM | > 25 µM | > 25 µM | > 25 µM | > 25 µM | > 25 µM | > 25 µM | > 25 µM | > 25 µM | > 25 µM
CCC(=O)OC1CCn2c1nc1c2C(=O)C(C)=C(N2CC2)C1=O (stereo not drawn) | 0.038 µM | 0.1 µM and 0.117 µM | 0.233 µM | 1.01 µM and 0.511 µM | 0.0138 µM |  |  | 0.0569 µM | 0.0141 µM | 0.0452 µM and 0.124 µM | 0.523 µM | 3.85 µM and 21.8 µM | 0.169 µM | 0.432 µM and 2.63 µM | 0.017 µM |  | 0.0407 µM | 0.255 µM and 0.283 µM | 0.496 µM | 
C=C1C(=O)O[C@H]2[C@H]1CC/C(COC(=O)C(=O)c1c[nH]c3ccc(OC)cc13)=C\CC[C@@]1(C)O[C@@H]21 |  | > 20.4 µM | 9.23 µM | 23.3 µM | 6.15 µM | 10.4 µM | 3.69 µM | 16.9 µM | 10.2 µM | 24.8 µM | 2.47 µM | 23 µM | 5.13 µM | 12.5 µM | 5.37 µM | 9.91 µM | 19.8 µM | 35.1 µM | 6.41 µM | 14.5 µM
COc1cc2c3c(n(CCCN)c(=O)c2cc1OC)-c1ccc(F)cc1C3=O | 17 µM | 34.7 µM | 1.69 µM | 15.6 µM | 1.28 µM | 3.17 µM | 0.618 µM | 7.25 µM | 0.369 µM | 1.78 µM | 0.17 µM | 0.987 µM | 8.15 µM | 24.9 µM | 1.34 µM | 2.7 µM | 3.87 µM | 17.7 µM | 14.7 µM | 30.4 µM
COC(=O)c1ccccc1NC(=O)C(=O)CC(=O)c1ccccc1NC1=CC(=O)C(=O)c2ccccc21 |  | 30.5 µM |  | 74.1 µM |  | 46.2 µM |  | 25.5 µM |  | 65.4 µM |  | 33.9 µM |  | 12 µM |  | 30.8 µM |  | 96.1 µM |  | > 95.1 µM
Cc1cc(S(=O)(=O)Nc2nc3ccsc3c(=O)n2Cc2ccco2)c(S)cc1Cl |  |  | > 100 µM | > 100 µM | > 100 µM | > 100 µM | > 100 µM | > 100 µM | 60.6 µM | > 100 µM | 50.7 µM | > 100 µM | 25.5 µM | > 100 µM | > 100 µM | > 100 µM |  |  | > 100 µM | > 100 µM
Cc1ccc(N=C2CSc3nnc(-c4csc5c4CCCC5)n3N2)cc1 | 0.221 µM | > 50 µM |  |  | 0.131 µM | 0.473 µM | 0.165 µM | > 50 µM | 0.181 µM | > 50 µM | 0.158 µM | > 50 µM | 0.12 µM | 0.298 µM | 0.297 µM | > 50 µM | 0.271 µM | > 50 µM | > 50 µM | > 50 µM
COc1ccc2nc(NCCCNCCO)c3sc4ccc(F)cc4c(=O)c3c2c1 | 1.92 µM | 3.95 µM | 1.58 µM | 2.98 µM | 1.71 µM | 3.18 µM | 1.79 µM | 3.53 µM | 1.53 µM | 3.02 µM |  |  | 1.92 µM | 3.87 µM | 1.38 µM | 2.82 µM |  |  | 1.72 µM | 3.3 µM
